Assay results published in publication PMC12822132, “Targeting mechanosensitive cannabinoid receptor 1 with isoflavone prodrugs attenuates atherosclerotic endothelial dysfunction” (Journal of Biomedical Science, 2026).

Target: T1, cannabinoid receptor 1 (CB1) (Homo sapiens, UniProt P21554)
T1 construct: gene CNR1; human recombinant receptor expressed in Chem-1 cells
Test: radioligand displacement binding assay
Type: cell-based

T1 sequence (P21554 whole entry): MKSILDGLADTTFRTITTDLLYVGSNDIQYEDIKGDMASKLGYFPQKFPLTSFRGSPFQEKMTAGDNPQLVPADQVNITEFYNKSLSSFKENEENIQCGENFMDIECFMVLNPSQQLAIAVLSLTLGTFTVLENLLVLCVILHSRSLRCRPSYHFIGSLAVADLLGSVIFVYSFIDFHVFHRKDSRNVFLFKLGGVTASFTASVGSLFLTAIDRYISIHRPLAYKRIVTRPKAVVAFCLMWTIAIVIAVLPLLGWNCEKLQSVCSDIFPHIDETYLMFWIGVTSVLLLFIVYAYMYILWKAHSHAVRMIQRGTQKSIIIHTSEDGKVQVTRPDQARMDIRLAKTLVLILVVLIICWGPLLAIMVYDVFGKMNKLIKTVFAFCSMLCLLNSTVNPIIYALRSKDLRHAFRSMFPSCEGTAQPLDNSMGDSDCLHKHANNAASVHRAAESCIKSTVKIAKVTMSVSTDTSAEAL

Compound: O=c1c(-c2ccc(O)cc2)coc2cc(O)cc(O)c12 [genistein]
- Ki: 140 nM
